Reference: patent US20150031675A1, “DIAZABICYCLO[3.3.1]NONANES, METHODS OF SYNTHESIS, AND USES THEREOF” (Targacept, Inc., priority 2012, published 2015)
Read-outs that look alike come from different tables or passages of the source.

What was measured:
Human α4β2 nAChR = molecular target: T1, Human α4β2 nAChR (Homo sapiens, UniProt P17787+P43681); test: Radioligand binding ([3H]nicotine) at α4β2 nAChR, membranes from SH-EP1/human α4β2 clonal cells
T1 construct: expressed in transfected cells; host or cells: SH-EP1 clonal cells expressing human α4β2
Method: Preparation of Membranes from SH-EP1/Human α4β2 Clonal Cells:
Cell pellets from 40 150 mm culture dishes were pooled, and homogenized by Polytron (Kinematica GmbH, Switzerland) in 20 milliliters of ice-cold preparative buffer. The homogenate was centrifuged at 48,000 g for 20 minutes at 4° C. The resulting pellet was re-suspended in 20 mL of ice-cold preparative buffer and stored at −20° C.
On the day of the assay, the frozen membranes were thawed and spun at 48,000×g for 20 min. The supernatant was decanted and discarded. The pellet was resuspended in Dulbecco's phosphate buffered saline (PBS, Life Technologies) pH 7.4 and homogenized with the Polytron for 6 seconds. Protein concentrations were determined using a Pierce BCA Protein Assay Kit, with bovine serum albumin as the standard (Pierce Chemical Company, Rockford, Ill.).
Incubation was terminated by rapid filtration on a multi-manifold tissue harvester (Brandel, Gaithersburg, Md.) using GF/B filters presoaked in 0.33% polyethyleneimine (w/v) to reduce non-specific binding. Tissue was rinsed 3 times in PBS, pH 7.4. Scintillation fluid was added to filters containing the washed tissue and allowed to equilibrate. Filters were then counted to determine radioactivity bound to the membranes by liquid scintillation counting (2200CA Tri-Carb LSC, Packard Instruments, 50% efficiency or Wallac Trilux 1450 MicroBeta, 40% efficiency, Perkin Elmer).
Data were expressed as disintegrations per minute (DPMs). Within each assay, each point had 2-3 replicates.

Human α7 nAChR = Human α7 nAChR (UniProt P36544); test: Radioligand binding ([3H]MLA) at α7 nAChR
[1] = competition with 5 nM [3H]MLA; Ki by Cheng-Prusoff; read-out: Human α7 Ki
[2] = read-out: Human α7 Ki; competition with 5 nM [3H]MLA; Ki by Cheng-Prusoff

T1 sequence (P43681 29-627 limits assumed): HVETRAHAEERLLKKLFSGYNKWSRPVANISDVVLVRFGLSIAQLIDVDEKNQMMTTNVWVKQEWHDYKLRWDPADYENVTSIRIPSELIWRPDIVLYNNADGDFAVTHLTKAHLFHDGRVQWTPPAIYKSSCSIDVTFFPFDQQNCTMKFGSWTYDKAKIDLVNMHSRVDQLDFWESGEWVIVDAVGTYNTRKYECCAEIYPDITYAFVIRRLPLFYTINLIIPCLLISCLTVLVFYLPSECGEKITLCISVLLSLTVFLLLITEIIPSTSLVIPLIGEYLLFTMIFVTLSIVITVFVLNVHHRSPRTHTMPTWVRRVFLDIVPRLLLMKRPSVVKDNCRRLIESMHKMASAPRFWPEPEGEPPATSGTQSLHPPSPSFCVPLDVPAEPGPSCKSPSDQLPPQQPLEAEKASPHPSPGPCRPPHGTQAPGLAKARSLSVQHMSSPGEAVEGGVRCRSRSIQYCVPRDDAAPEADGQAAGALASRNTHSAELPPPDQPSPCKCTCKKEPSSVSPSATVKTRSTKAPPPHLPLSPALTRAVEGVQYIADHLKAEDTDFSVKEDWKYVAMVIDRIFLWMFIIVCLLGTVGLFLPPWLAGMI
T1 sequence (P17787 26-502): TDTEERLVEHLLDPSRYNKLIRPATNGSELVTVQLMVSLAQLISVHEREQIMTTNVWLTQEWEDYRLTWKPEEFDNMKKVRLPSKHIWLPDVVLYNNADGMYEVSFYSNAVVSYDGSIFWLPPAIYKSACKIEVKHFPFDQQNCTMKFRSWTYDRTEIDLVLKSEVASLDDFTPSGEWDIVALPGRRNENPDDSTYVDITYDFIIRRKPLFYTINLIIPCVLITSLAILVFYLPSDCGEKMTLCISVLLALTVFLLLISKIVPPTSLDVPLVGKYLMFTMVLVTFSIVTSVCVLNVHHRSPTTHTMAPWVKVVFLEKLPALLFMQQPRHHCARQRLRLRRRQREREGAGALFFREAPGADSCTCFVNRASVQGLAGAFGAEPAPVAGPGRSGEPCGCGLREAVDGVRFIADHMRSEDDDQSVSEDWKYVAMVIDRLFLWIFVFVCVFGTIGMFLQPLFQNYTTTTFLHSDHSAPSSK

With `c1cncc(N2CC3CC(C2)CN(C2CN4CCC2CC4)C3)c1` (centres unmarked) the Ki (Human α4β2 nAChR) was 42 nM and the Ki (Human α7 nAChR; [1]) was 510 nM.
In the case of `c1cncc(N2CC3CC(C2)CN(C2CCCNC2)C3)c1` (centres unmarked), the Ki (Human α4β2 nAChR; read-out: Human α4β2 Ki) is reported as 0.79 nM and the Ki (Human α7 nAChR; [2]) is reported as 62 nM.
`c1cncc(N2CC3CC(C2)CN(C2CCNCC2)C3)c1` was tested, and the Ki (Human α4β2 nAChR) was 14 nM and the Ki (Human α7 nAChR; [1]) was 790 nM.
Compound `c1cncc(N2CC3CC(C2)CN(C2CCNC2)C3)c1` (centres unmarked) has a Ki (Human α4β2 nAChR; read-out: Human α4β2 Ki) of 0.16 nM and a Ki (Human α7 nAChR; [2]) of 24 nM.
With `c1cncc(N2CC3CC(C2)CN(C2CCCNCC2)C3)c1` (centres unmarked) the Ki (Human α4β2 nAChR; read-out: Human α4β2 Ki) was 0.45 nM and the Ki (Human α7 nAChR; [2]) was 20 nM.
`c1cncc(N2CC3CC(C2)CN(C2CNC2)C3)c1` showed a Ki (Human α4β2 nAChR) of 5.8 nM and a Ki (Human α7 nAChR; [1]) of 550 nM.
For `CN1CCC(N2CC3CC(CN(c4cccnc4)C3)C2)C1` (centres unmarked), the Ki (Human α4β2 nAChR) was 11 nM and the Ki (Human α7 nAChR; [1]) was 790 nM.
